According to patent US11353463B2, “Redox-based reagents for methionine bioconjugation” (The Regents of the University of California, priority 2016, dated 2022):

Key:
[1] = target: bovine serum albumin (BSA) (Bos taurus, UniProt P02769); test: ReACT labeling of BSA, CuAAC with Cy3-azide, in-gel fluorescence imaging
Experimental: FIG. 1A Left panel: Acid-base conjugation strategies for cysteine-based protein functionalization; Right panel: Redox-Activated Chemical Tagging (ReACT) strategies for methionine-based protein functionalization. Oxaziridine (Ox) compounds serve as oxidant-sulfimide conjugation product. (B) Model redox conjugation reaction with 25 μM of N-acetyl-L-methionine methyl ester (Si) and 27.5 μM of various oxaziridine compounds as substrates in co-solvent. (C) Number of unique redox conjugation carrying peptide on representative amino acid, namely Met, Lys and Cys by labeling HeLa cell lysate with Ox4 at the final concentration of 1 mM for 10 min. (D) Yield of conjugation reaction was performed with 15 μM of BSA carrying 4 methionine per protein and 100 μM Ox4 at indicated time point as measured by in-gel fluorescence imaging.
ReACT as a method for site-selective methionine conjugation of proteins was evaluated. […] The resulting redox conjugation yield to BSA was analyzed by in-gel fluorescence imaging. […] The reactivity of various alkyne- and azide-containing oxaziridine probes with CaM model protein was assessed (FIG. 2B). […]

[2] = Stability of redox conjugation product sulfimide (NMR); type: physicochemical; settings: salt form under strong acidic condition
Experimental: The reactivity of oxaziridine probes with other biologically relevant amino acid competitors was evaluated. […] HeLa cell lysates were treated with Ox4, trypsin digested, and then analyzed by LC-MS/MS for probe modification on all nucleophilic amino acids using the X!Tandem program^43. […] Finally, the chemical stability of the sulfimide methionine conjugation product was tested, finding that this linkage is resistant to acidic and basic conditions, elevated temperature, as well as treatment with a strong protein disulfide reducing agent such as tris(2-carboxyethyl)phophine (TCEP).
The stability of sulfimides were tested by treatment of sulfimides S2 with 5 mM TCEP or treatment of sulfimides S3 with 1 N HC1, 1 N NaOH or 80° C. in co-solvent (d-MeOD/D2O=1:1). The reactions were monitored by NMR after 1 h and 18 h and the reaction conversions were calculated based on NMR data.

Sequence of bovine serum albumin (BSA) (P02769 25-607): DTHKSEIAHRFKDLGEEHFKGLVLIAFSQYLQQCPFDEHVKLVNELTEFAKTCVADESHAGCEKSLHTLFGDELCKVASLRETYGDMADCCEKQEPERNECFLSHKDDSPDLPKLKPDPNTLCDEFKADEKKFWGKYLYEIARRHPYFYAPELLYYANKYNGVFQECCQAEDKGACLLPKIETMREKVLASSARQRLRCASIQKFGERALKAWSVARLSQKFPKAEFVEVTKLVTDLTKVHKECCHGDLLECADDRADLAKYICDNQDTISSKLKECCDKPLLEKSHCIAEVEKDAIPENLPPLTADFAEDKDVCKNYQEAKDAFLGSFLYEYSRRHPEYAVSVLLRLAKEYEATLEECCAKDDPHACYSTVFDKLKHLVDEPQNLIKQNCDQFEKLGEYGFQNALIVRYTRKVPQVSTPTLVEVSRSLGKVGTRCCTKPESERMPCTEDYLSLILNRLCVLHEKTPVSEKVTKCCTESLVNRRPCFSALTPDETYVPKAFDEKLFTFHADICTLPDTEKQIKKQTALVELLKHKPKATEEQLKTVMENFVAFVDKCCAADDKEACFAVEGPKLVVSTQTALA

Row | SMILES | redox conjugation yield to BSA ([1]; within 1-2 min, 15 μM BSA, 100 μM Ox4) [%] | labeling of BSA ([1]; within the first 5 s following addition of Ox4) [%] | stability in aqueous solution [2]
1 | C#CCNC(=O)N1OC1c1ccccc1 (stereo not drawn) [Ox4, 3-Phenyl-N-(prop-2-yn-1-yl)-1,2-oxaziridine-2-carboxamide] | > 95 | 50 | 
2 | CCNC(=O)N[S+](C)c1ccccc1.[Cl-] (stereo not drawn) [Ox S4] |  |  | stable in aqueous solution
